Measurements as given in US3997557A, “Substituted N-aminoalkylpyrroles” (American Hoechst Corporation, priority 1974, dated 1976).

Assays:
[1] = test system: isolated rabbit atrium; test: Isolated rabbit atrium, increase in functional refractory period (antiarrhythmic); settings: Oryctolagus cuniculus; 10^-5 molar
Procedure: The compounds of the invention are useful as antiarrhythmic agents because of their ability to alleviate cardiac arrhythmias. […] 198] wherein the compounds effect an increase in the functional refractory period. Compounds are dissolved in Krebs-Henseleit solution, and the percent change in the functional refractory period is monitored with an oscilloscope. […] Similarly at a concentration of 10^-^6 molar 1-(3-dimethylaminopropyl)-2-(p-bromophenyl)-4,5,6,7-tetrahydroindole hydrochloride and 1-(2-methylaminoethyl)-2-phenyl-1,4,5,6,7,8-hexahydrocyclohepta[b]pyrrole hydrochloride each effect a 150% increase in the functional refractory period.

[2] = test system: central nervous system; test: Mouse observation procedure of S. Irwin, central nervous system depressant effects (tranquilizer); format: in vivo; settings: male COBS mice, behavior and reflex depression, muscle relaxation, read-out: minimum effective dose (MED)/Kilogram of body weight
Procedure: The compounds of the invention are useful as tranquilizers because of their depressant effects on the central nervous system. The depressant effects on the central nervous system were evaluated according to the mouse observation procedure of S. Irwin, Psychopharmacologia, 13, 222 (1968). Male COBS mice are dosed with the drug, and its effects on behavior and reflex depression together with muscle relaxation determined by the degree of deviation from control scores, with activity expressed in terms of minimum effective dose (MED). The effectiveness of compounds of the invention as tranquilizers is illustrated in Table I below.

[3] = test system: spontaneous hypertensive rat; test: Lowering of blood pressure in the spontaneous hypertensive rat, indirect tail cuff method; format: in vivo; settings: 100 mg/kg of body weight
Procedure: The compounds of this invention are also useful as antihypertensive agents because of their ability to lower blood pressure in mammals. […] 135. For example, at a dose of 100 mg/kg of body weight, the compounds shown in Table III below effect the corresponding decrease in systolic blood pressure.

[4] = test system: carrageenin-induced rat paw edema; test: Carrageenin-induced rat paw edema antiinflammatory assay; format: in vivo; settings: 200 mg/kg of body weight
Source text: The compounds of this invention are useful as antiinflammatory agents because of their ability to suppress inflammation in mammals. […] Exp. Biol. Med. III, 544 (1962)].

SMILES	activation at 10 µM [1] [%]	minimal effective dose [2] [mg/kg]	decrease in systolic blood pressure [3] [mm Hg]	inhibition in vivo at 200 mg/kg [4] [%]
CN(C)CCCn1c(-c2ccccc2)cc2c1CCCCC2.Cl [Example 40, 1-(3-dimethylaminopropyl)-2-phenyl-1,4,5,6,7,8-hexahydrocyclohepta[b]pyrrole hydrochloride]	275	25	50	–
CCN(CC)CCCn1c(-c2ccccc2)cc2c1CCCCC2.Cl [Example 41, 1-(3-diethylaminopropyl)-2-phenyl-1,4,5,6,7,8-hexahydrocyclohepta[b]pyrrole hydrochloride]	264	50	49	50
